Measured values published in US20150284335A1, “Benzoimidazoles as prolyl hydroxylase inhibitors” (Janssen Pharmaceutica NV, priority 2008, published 2015).
Marks after values point to notes of the source that are not given here.

Assays:
[1] = system: Hep-3B cells; experiment: Cellular assay: EPO secretion in Hep-3B cells; type: cell-based, human; settings: 24 hours, percent of EPO secretion relative to assay control compound
[2] = target: T1, PHD2181-417 (Homo sapiens, UniProt Q9GZT9); experiment: PHD enzyme activity assay ([14C]-succinic acid production); type: biochemical; settings: inhibition of PHD2181-417 activity; HIF-1α peptide 10 μM, [5-14C]-2-oxoglutaric acid, 10 minutes; read-out: Enzyme pIC50 (converted);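 note: enzyme expressed in E. coli BL21, assayed in Tris-HCl pH 7.5 with catalase, DTT and ascorbate, [14C]-succinic acid beta-counted after DNP precipitation of residual 2-oxoglutarate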
T1 construct: histidine tag (N, cleaved yes); Smt3 (SUMO) tag (N, cleaved yes); made in house; host or cells: E. coli BL21 (pBAD vector)
T1 sequence (Q9GZT9 181-417): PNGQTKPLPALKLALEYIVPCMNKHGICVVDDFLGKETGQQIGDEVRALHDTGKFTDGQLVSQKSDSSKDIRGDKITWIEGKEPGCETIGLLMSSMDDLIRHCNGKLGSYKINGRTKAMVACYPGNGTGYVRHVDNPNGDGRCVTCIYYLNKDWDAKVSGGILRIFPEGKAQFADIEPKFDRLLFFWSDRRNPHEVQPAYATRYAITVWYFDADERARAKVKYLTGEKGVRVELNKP

[3] = final compound concentration of 10 μM
[4] = final compound concentration 100 μM

Row | Compound | IC50 [2] [nM] | Cellular % EPO Stimulation [1, 3] | Cellular % EPO Stimulation [1, 4] [%]
1 | CC(NC(=O)c1nc2ccccc2[nH]1)C(=O)O (stereo in doubt) [Example 50, (R)-2-[(1H-Benzoimidazole-2-carbonyl)-amino]-propionic acid] | > 100000 | 9.50* % | 
2 | O=C(NC(CO)C(=O)O)c1nc2ccccc2[nH]1 (stereo in doubt) [Example 51, (R)-2-[(1H-Benzoimidazole-2-carbonyl)-amino]-3-hydroxy-propionic acid] | 20000 | 0.73* % | 
3 | O=C(O)CNC(=O)c1nc2ccccc2[nH]1 [Example 1, [(1H-Benzoimidazole-2-carbonyl)-amino]-acetic acid] |  |  | 23.9
4 | C[C@H](NC(=O)c1nc2ccccc2[nH]1)C(=O)O [Example 2, (S)-2-[(1H-Benzoimidazole-2-carbonyl)-amino]-propionic acid] | 39800 |  | 66.03
5 | C[C@H](NC(=O)c1nc2cc(Cl)c(Cl)cc2[nH]1)C(=O)O [Example 4, (S)-2-[(5,6-Dichloro-1H-benzoimidazole-2-carbonyl)-amino]-propionic acid] | 25100 |  | 7.70
6 | O=C(O)CNC(=O)c1nc2ccc([N+](=O)[O-])cc2[nH]1 [Example 5, [(6-Nitro-1H-benzoimidazole-2-carbonyl)-amino]-acetic acid] | 5010 |  | 0.00
7 | O=C(O)CNC(=O)c1nc2cc(C(F)(F)F)cc(C(F)(F)F)c2[nH]1 [Example 6, [(5,7-Bis-trifluoromethyl-1H-benzoimidazole-2-carbonyl)-amino]-acetic acid] |  |  | 4.20
8 | C[C@H](NC(=O)c1nc2cc(C(F)(F)F)cc(C(F)(F)F)c2[nH]1)C(=O)O [Example 7, (S)-2-[(5,7-Bis-trifluoromethyl-1H-benzoimidazole-2-carbonyl)-amino]-propionic acid] |  |  | 1.60
9 | O=C(O)CNC(=O)c1nc2cc(I)ccc2[nH]1 [Example 8, [(5-Iodo-1H-benzoimidazole-2-carbonyl)-amino]-acetic acid] | 39800 |  | 3.80
10 | O=C(O)CNC(=O)c1nc2ccc(Br)cc2[nH]1 [Example 9, [(6-Bromo-1H-benzoimidazole-2-carbonyl)-amino]-acetic acid] |  |  | 9.80
11 | C[C@H](NC(=O)c1nc2ccc(F)cc2[nH]1)C(=O)O [Example 10, (S)-2-[(6-Fluoro-1H-benzoimidazole-2-carbonyl)-amino]-propionic acid] | > 100000 |  | 14.74
12 | C[C@@H](NC(=O)c1nc2ccc(F)cc2[nH]1)C(=O)O [Example 11, (R)-2-[(6-Fluoro-1H-benzoimidazole-2-carbonyl)-amino]-propionic acid] | 79400 |  | 23.93
13 | COc1ccc2nc(C(=O)NCC(=O)O)[nH]c2c1 [Example 12, [(6-Methoxy-1H-benzoimidazole-2-carbonyl)-amino]-acetic acid] |  |  | 0.50
14 | C[C@@H](NC(=O)c1nc2cc(C(F)(F)F)cc(C(F)(F)F)c2[nH]1)C(=O)O [Example 52, (R)-2-[(5,7-Bis-trifluoromethyl-1H-benzoimidazole-2-carbonyl)-amino]-propionic acid] |  |  | 17.80
15 | O=C(O)c1cn(-c2nc3cc(Cl)c(Cl)cc3[nH]2)nc1C(F)(F)F [Example 56, 1-(5,6-dichloro-1H-benzoimidazol-2-yl)-3-trifluoromethyl-1H-pyrazole-4-carboxylic acid] | > 10000 |  | 
16 | Cc1nn(-c2nc3cc(Br)ccc3[nH]2)c(C)c1C(=O)O [Example 57, 1-(5-Bromo-1H-benzoimidazol-2-yl)-3,5-dimethyl-1H-pyrazole-4-carboxylic acid] | 63100 |  | 
17 | Cc1nn(-c2nc3cc(Cl)c(Cl)cc3[nH]2)c(C)c1C(=O)O [Example 58, 1-(5,6-Dichloro-1H-benzoimidazol-2-yl)-3,5-dimethyl-1H-pyrazole-4-carboxylic acid] | > 10000 |  | 

The next lines start with results.

Row | IC50 [2] [nM] | Compound | Cellular % EPO Stimulation [1, 3] | Cellular % EPO Stimulation [1, 4] [%]
18 | 1580 | O=C(O)CNC(=O)c1nc2cc(-c3cccc(OCc4cccc(Cl)c4)c3)ccc2[nH]1 [Example 13, ({5-[3-(3-Chloro-benzyloxy)-phenyl]-1H-benzoimidazole-2-carbonyl}-amino)-acetic acid] |  | 1.20
19 | 2510 | O=C(O)CNC(=O)c1nc2cc(-c3cccc(OCc4ccccc4Cl)c3)ccc2[nH]1 [Example 14, ({5-[3-(2-Chloro-benzyloxy)-phenyl]-1H-benzoimidazole-2-carbonyl}-amino)-acetic acid] |  | −3.80
20 | 2510 | O=C(O)CNC(=O)c1nc2cc(-c3cccc(OCc4ccc(Cl)cc4)c3)ccc2[nH]1 [Example 15, ({5-[3-(4-Chloro-benzyloxy)-phenyl]-1H-benzoimidazole-2-carbonyl}-amino)-acetic acid] |  | −3.90
21 | 2510 | O=C(O)CNC(=O)c1nc2cc(-c3cccc(OCc4cccc(F)c4)c3)ccc2[nH]1 [Example 16, ({5-[3-(3-Fluoro-benzyloxy)-phenyl]-1H-benzoimidazole-2-carbonyl}-amino)-acetic acid] |  | 2.10
22 | 5010 | O=C(O)CNC(=O)c1nc2cc(-c3cccc(OCc4ccccc4F)c3)ccc2[nH]1 [Example 17, ({5-[3-(2-Fluoro-benzyloxy)-phenyl]-1H-benzoimidazole-2-carbonyl}-amino)-acetic acid] |  | 1.50
23 | 7940 | O=C(O)CNC(=O)c1nc2cc(-c3ccc(Oc4ccccc4)cc3)ccc2[nH]1 [Example 18, {[5-(4-Phenoxy-phenyl)-1H-benzoimidazole-2-carbonyl]-amino}-acetic acid] |  | 2.00
24 | 6310 | O=C(O)CNC(=O)c1nc2cc(-c3cc(F)cc(OCc4ccccc4)c3)ccc2[nH]1 [Example 19, {[5-(3-Benzyloxy-5-fluoro-phenyl)-1H-benzoimidazole-2-carbonyl]-amino}-acetic acid] |  | −3.80
25 | 1580 | O=C(O)CNC(=O)c1nc2cc(-c3cnc4ccccc4c3)ccc2[nH]1 [Example 20, [(5-Quinolin-3-yl-1H-benzoimidazole-2-carbonyl)-amino]-acetic acid] |  | 8.26
26 | 794 | Cc1cc2nc(-n3cc(C(=O)O)cn3)[nH]c2cc1C [Example 36, 1-(5,6-Dimethyl-1H-benzoimidazol-2-yl)-1H-pyrazole-4-carboxylic acid] |  | 
27 | 158 | O=C(O)c1cnn(-c2nc3c(Cl)cc(C(F)(F)F)cc3[nH]2)c1 [Example 39, 1-(4-Chloro-6-trifluoromethyl-1H-benzoimidazol-2-yl)-1H-pyrazole-4-carboxylic acid] |  | 
28 | 398 | COc1cc2nc(-n3cc(C(=O)O)cn3)[nH]c2cc1OC [Example 40, 1-(5,6-Dimethoxy-1H-benzoimidazol-2-yl)-1H-pyrazole-4-carboxylic acid] |  | 
29 | 7940 | Cc1ccc2[nH]c(-n3cc(C(=O)O)cn3)nc2c1C [Example 41, 1-(4,5-Dimethyl-1H-benzoimidazol-2-yl)-1H-pyrazole-4-carboxylic acid] |  | 
30 | 31.6 | O=C(O)c1cnn(-c2nc3cc(-c4cccc(OCc5cccc(Cl)c5)c4)ccc3[nH]2)c1 [Example 43, 1-{5-[3-(3-Chloro-benzyloxy)-phenyl]-1H-benzoimidazol-2-yl}-1H-pyrazole-4-carboxylic acid] |  | 
31 | 25.1 | O=C(O)c1cnn(-c2nc3cc(-c4cccc(OCc5ccccc5Cl)c4)ccc3[nH]2)c1 [Example 44, 1-{5-[3-(2-Chloro-benzyloxy)-phenyl]-1H-benzoimidazol-2-yl}-1H-pyrazole-4-carboxylic acid] |  | 
32 | 50.1 | O=C(O)c1cnn(-c2nc3cc(-c4cccc(OCc5ccccc5)c4)ccc3[nH]2)c1 [Example 46, 1-[5-(3-Benzyloxy-phenyl)-1H-benzoimidazol-2-yl]-1H-pyrazole-4-carboxylic acid] |  | 
33 | 200 | O=C(O)c1cnn(-c2nc3cc(-c4ccc(OCc5ccccc5)cc4)ccc3[nH]2)c1 [Example 47, 1-[5-(4-Benzyloxy-phenyl)-1H-benzoimidazol-2-yl]-1H-pyrazole-4-carboxylic acid] |  | 
34 | 79.4 | O=C(O)c1cnn(-c2nc3cc(-c4cccc(C(F)(F)F)c4)ccc3[nH]2)c1 [Example 48, 1-[5-(3-Trifluoromethyl-phenyl)-1H-benzoimidazol-2-yl]-1H-pyrazole-4-carboxylic acid] |  | 
35 | 79.4 | O=C(O)c1cnn(-c2nc3cc(-c4ccc(Cl)c(Cl)c4)ccc3[nH]2)c1 [Example 49, 1-[5-(3,4-Dichloro-phenyl)-1H-benzoimidazol-2-yl]-1H-pyrazole-4-carboxylic acid] |  | 
36 | > 100000 | O=C(O)c1cn(-c2nc3cc(Br)ccc3[nH]2)nc1C(F)(F)F [Example 55, 1-(5-Bromo-1H-benzoimidazol-2-yl)-3-trifluoromethyl-1H-pyrazole-4-carboxylic acid] |  | 
37 | 251 | O=C(O)c1cnn(-c2nc3cc(-c4ccc(O)cc4)ccc3[nH]2)c1 [Example 59, 1-[5-(4-Hydroxy-phenyl)-1H-benzoimidazol-2-yl]-1H-pyrazole-4-carboxylic acid] |  | 
38 | 316 | O=C(O)c1cnn(-c2nc3cc(-c4cccc(O)c4)ccc3[nH]2)c1 [Example 60, 1-[5-(3-Hydroxy-phenyl)-1H-benzoimidazol-2-yl]-1H-pyrazole-4-carboxylic acid] |  | 
39 | 501 | O=C(O)c1cnn(-c2nc3cc(Cl)ccc3[nH]2)c1 [Example 61, 1-(5-Chloro-1H-benzoimidazol-2-yl)-1H-pyrazole-4-carboxylic acid] |  | 
40 | 398 | Cc1c(Br)cc2nc(-n3cc(C(=O)O)cn3)[nH]c2c1C [Example 62, 1-(5-Bromo-6,7-dimethyl-1H-benzoimidazol-2-yl)-1H-pyrazole-4-carboxylic acid] |  | 
